Values quoted from earlier work in PMC8287861 (Frontiers in Microbiology, 2021).
Converted amounts (≈) assume the structure as drawn.

Key:
Design in all cases: method as in Lomovskaya et al. (2020b)
PAM4819 CTX-M-2 = settings: PAM4819, CTX-M-2, class A; ref Lomovskaya et al. (2020b)
PAM4743 CTX-M-15 = settings: PAM4743, CTX-M-15, class A; ref Lomovskaya et al. (2020b)
PAM4822 CTX-M-27 = settings: PAM4822, CTX-M-27, class A; ref Lomovskaya et al. (2020b)
PAM4800 GES-19 = settings: PAM4800, GES-19, class A; ref Lomovskaya et al. (2020b)
PAM4840 OXY-6-2 = settings: PAM4840, OXY-6-2, class A; ref Lomovskaya et al. (2020b)
PAM4878 TEM-10 = settings: PAM4878, TEM-10, class A; ref Lomovskaya et al. (2020b)
PAM4910 VEB-2 = settings: PAM4910, VEB-2, class A; ref Lomovskaya et al. (2020b)
PAM4912 VEB-3 = settings: PAM4912, VEB-3, class A; ref Lomovskaya et al. (2020b)
PAM4135 KPC-2 = settings: PAM4135, KPC-2, class A-CARB; ref Lomovskaya et al. (2020b)
PAM4689 KPC-3 = settings: PAM4689, KPC-3, class A-CARB; ref Lomovskaya et al. (2020b)
PAM4794 NMC-1 = settings: PAM4794, NMC-1, class A-CARB; ref Lomovskaya et al. (2020b)
PAM4864 SFC-1 = settings: PAM4864, SFC-1, class A-CARB; ref Lomovskaya et al. (2020b)
PAM4744 SME-2 = settings: PAM4744, SME-2, class A-CARB; ref Lomovskaya et al. (2020b)
PAM4676 BKC-1 = settings: PAM4676, BKC-1, class A-CARB; ref Lomovskaya et al. (2020b)
PAM4884 ADC-181 = settings: PAM4884, ADC-181, class C; ref Lomovskaya et al. (2020b)
PAM4876 OXA-72 = settings: PAM4876, OXA-72, class D-CARB; ref Lomovskaya et al. (2020b)
PAM4877 OXA-58 = settings: PAM4877, OXA-58, class D-CARB; ref Lomovskaya et al. (2020b)
PAM4917 NDM-7 = settings: PAM4917, NDM-7, class B1; ref Lomovskaya et al. (2020b)
PAM4795 VIM-1 = settings: PAM4795, VIM-1, class B1; ref Lomovskaya et al. (2020b)
PAM4887 IMP-1 = settings: PAM4887, IMP-1, class B1; ref Lomovskaya et al. (2020b)
PAM4198 IMP-15 = settings: PAM4198, IMP-15, class B1; ref Lomovskaya et al. (2020b)
PAM4879 CcrA1 = settings: PAM4879, CcrA1, class B1; ref Lomovskaya et al. (2020b)
PAM4880 L1 = settings: PAM4880, L1, class B3; ref Lomovskaya et al. (2020b)

Row | Compound | MIC (PAM4819 CTX-M-2) [µg/mL] | MIC (PAM4743 CTX-M-15) [µg/mL] | MIC (PAM4822 CTX-M-27) [µg/mL] | MIC (PAM4800 GES-19) [µg/mL] | MIC (PAM4840 OXY-6-2) [µg/mL] | MIC (PAM4878 TEM-10) [µg/mL] | MIC (PAM4910 VEB-2) [µg/mL] | MIC (PAM4912 VEB-3) [µg/mL] | MIC (PAM4135 KPC-2) [µg/mL] | MIC (PAM4689 KPC-3) [µg/mL] | MIC (PAM4794 NMC-1) [µg/mL] | MIC (PAM4864 SFC-1) [µg/mL] | MIC (PAM4744 SME-2) [µg/mL] | MIC (PAM4676 BKC-1) [µg/mL] | MIC (PAM4884 ADC-181) [µg/mL] | MIC (PAM4876 OXA-72) [µg/mL] | MIC (PAM4877 OXA-58) [µg/mL] | MIC (PAM4917 NDM-7) [µg/mL] | MIC (PAM4795 VIM-1) [µg/mL] | MIC (PAM4887 IMP-1) [µg/mL] | further results
1 | CC(C)(O/N=C(\C(=O)N[C@@H]1C(=O)N2C(C(=O)[O-])=C(C[n+]3ccccc3)CS[C@H]12)c1csc(N)n1)C(=O)O [Ceftazidime, ceftazidime] | 1 (≈ 1.83 µM) | 32 (≈ 58.5 µM) | 64 (≈ 117 µM) | >64 | 0.5 (≈ 0.915 µM) | >64 | >64 | >64 | 16 (≈ 29.3 µM) | >64 | 1 (≈ 1.83 µM) | 2 (≈ 3.66 µM) | 0.5 (≈ 0.915 µM) | 3 (≈ 5.49 µM) | 8 (≈ 14.6 µM) | 0.25 (≈ 0.457 µM) | 0.25 (≈ 0.457 µM) | >64 | 64 (≈ 117 µM) | >64 | MIC (PAM4198 IMP-15): 64 µg/mL (≈ 117 µM); MIC (PAM4879 CcrA1): 4 µg/mL (≈ 7.32 µM); MIC (PAM4880 L1): 64 µg/mL (≈ 117 µM)
2 | CCN1CCN(C(=O)N[C@@H](C(=O)N[C@@H]2C(=O)N3[C@@H]2SC(C)(C)[C@@H]3C(=O)O)c2ccccc2)C(=O)C1=O [Piperacillin, piperacillin] | 64 (≈ 124 µM) | >64 | >64 | 8 (≈ 15.5 µM) | >64 | 32 (≈ 61.8 µM) | 16 (≈ 30.9 µM) | 8 (≈ 15.5 µM) | >64 | >64 | 16 (≈ 30.9 µM) | >64 | 8 (≈ 15.5 µM) | 32 (≈ 61.8 µM) | 1 (≈ 1.93 µM) | 16 (≈ 30.9 µM) | 4 (≈ 7.73 µM) | 32 (≈ 61.8 µM) | 16 (≈ 30.9 µM) | 1 (≈ 1.93 µM) | MIC (PAM4198 IMP-15): 0.5 µg/mL (≈ 0.966 µM); MIC (PAM4879 CcrA1): 0.25 µg/mL (≈ 0.483 µM); MIC (PAM4880 L1): 32 µg/mL (≈ 61.8 µM)
